Results reported in US10669290B2, “Beta-lactamase inhibitors” (priority 2012, dated 2020).

Key:
Format in all cases: cell-based
P. aerug. Ps296 VIM-2 = test: Broth microdilution MIC, P. aeruginosa Ps296; settings: Pseudomonas aeruginosa; fixed meropenem 4 μg/mL, CAMHB, 16-20 hours 37° C.; read-out: MIC of exemplary compounds in presence of fixed β-lactams, Fixed Mero, P. aerug. Ps296 VIM-2
Excerpt: (§1) To determine the ability of test compounds to potentiate the inhibition of the growth of bacterial strains that produce beta-lactamase enzymes, classic cell based broth microdilution MIC assays were employed. Six bacteria strains producing beta-lactamase enzymes were used: E. coli expressing the Class A Extended Spectrum Beta-Lactamase (ESBL) CTX-M-15, E. cloacae expressing the Class C P99, K. pneumoniae expressing the Class A carbapenemase KPC-2, P. aeruginosa expressing the Class B carbapenemase VIM-2, K. pneumoniae expressing the class A carbapenemase KPC-2 and the class B carbapenemase VIM-4, and S. aureus producing the Class A penicillinase PC-1. The assay was conducted in Cation Adjusted Mueller Hinton Broth (CAMHB, BD #212322, BD Diagnostic Systems, Sparks, Md.). Bacteria strains were grown for 3-5 hours in CAMBH broth. Test compounds were added to a microtiter plate in 2-fold serial dilutions in CAMHB in a final concentration range of 32 μg/mL to 0.25 μg/ml. An overlay of CAMHB containing a Beta-lactam was added to the compounds at a final static concentration of 4 μg/ml. […] In addition to the titration of test compounds the MICs of a panel of control beta-lactams is also tested to ensure the strains are behaving consistently from test to test. Once the test compound and antibiotics are added the plates can be inoculated according to CLSI broth microdilution method. After inoculation the plates are incubated for 16-20 hours at 37° C. then the Minimal Inhibitory Concentration (MIC) of the test compound is determined visually.
(§2) Using the methodology described above in EXAMPLE III, exemplary compounds for Formula I or Formula Ia were evaluated for their ability to inhibit the growth of β-lactamase producing bacteria in the presence of a β-lactam antibiotic.

E. cl 144200 p99 AmpC = test: Broth microdilution MIC, E. cloacae 144200; settings: Enterobacter cloacae; fixed ceftazidime 4 μg/mL, CAMHB, 16-20 hours 37° C.; read-out: MIC of exemplary compounds in presence of fixed β-lactams, Fixed CAZ, E. cl 144200 p99 AmpC
Excerpt: as §1, §2

E. coli ESBL4 CTX-M-15 = test: Broth microdilution MIC, E. coli ESBL4; settings: Escherichia coli, ESBL4CTXM15; fixed ceftazidime 4 μg/mL, CAMHB, 16-20 hours 37° C.; read-out: MIC of exemplary compounds in presence of fixed β-lactams, Fixed CAZ, E. coli ESBL4 CTX-M-15
Excerpt: as §1, §2

K.P. 156319 KPC-3 = test: Broth microdilution MIC, K. pneumoniae 156319; settings: Klebsiella pneumoniae; fixed meropenem 4 μg/mL, CAMHB, 16-20 hours 37° C.; read-out: MIC of exemplary compounds in presence of fixed β-lactams, Fixed Mero, K.P. 156319 KPC-3
S. aureus MSSA-7 PC-1 = test: Broth microdilution MIC, S. aureus MSSA-7; settings: Staphylococcus aureus, fixed piperacillin 4 μg/mL, CAMHB, 16-20 hours 37° C., read-out: MIC of exemplary compounds in presence of fixed β-lactams, Fixed Pip, S. aureus MSSA-7 PC-1
Excerpt: as §1, §2

K.P. A-1797 KPC-2 VIM-4 = test: Broth microdilution MIC, K. pneumoniae A-1797; settings: Klebsiella pneumoniae; fixed meropenem 4 μg/mL, CAMHB, 16-20 hours 37° C.; read-out: MIC of exemplary compounds in presence of fixed β-lactams, Fixed Mero, K.P. A-1797 KPC-2 VIM-4
Excerpt: as §1, §2

## O=C(CC1CCCCC1)N[C@H]1Cc2cccc(C(=O)O)c2OB1O [Example 31, (R)-3-(2-cyclohexylacetamido)-2-hydroxy-3,4-dihydro-2H-benzo[e][1,2]oxaborinine-8-carboxylic acid]
P. aerug. Ps296 VIM-2
  MIC: 8 to 32 mg/L
E. cl 144200 p99 AmpC
  MIC: < 4 mg/L
E. coli ESBL4 CTX-M-15
  MIC: < 4 mg/L
K.P. 156319 KPC-3
  MIC: 8 to 32 mg/L
S. aureus MSSA-7 PC-1
  MIC: < 4 mg/L
K.P. A-1797 KPC-2 VIM-4
  MIC: > 32 mg/L

## O=C(C[C@H]1CC[C@H](NCc2nccs2)CC1)N[C@H]1Cc2cccc(C(=O)O)c2OB1O [Example 39]
P. aerug. Ps296 VIM-2
  MIC: 8 to 32 mg/L
E. cl 144200 p99 AmpC
  MIC: < 4 mg/L
E. coli ESBL4 CTX-M-15
  MIC: < 4 mg/L
K.P. 156319 KPC-3
  MIC: < 4 mg/L
S. aureus MSSA-7 PC-1
  MIC: < 4 mg/L
K.P. A-1797 KPC-2 VIM-4
  MIC: 8 to 32 mg/L

## CCNCCN[C@H]1CC[C@H](CC(=O)N[C@H]2Cc3cccc(C(=O)O)c3OB2O)CC1 [Example 78, (R)-3-(2-(trans-4-(2-(ethylamino)ethylamino)cyclohexyl)acetamido)-2-hydroxy-3,4-dihydro-2H-benzo[e][1,2]oxaborinine-8-carboxylic acid]
P. aerug. Ps296 VIM-2
  MIC: < 4 mg/L
E. cl 144200 p99 AmpC
  MIC: < 4 mg/L
E. coli ESBL4 CTX-M-15
  MIC: < 4 mg/L
K.P. 156319 KPC-3
  MIC: < 4 mg/L
S. aureus MSSA-7 PC-1
  MIC: < 4 mg/L
K.P. A-1797 KPC-2 VIM-4
  MIC: < 4 mg/L

## O=C(C[C@H]1CC[C@H](N2C=NCC2)CC1)N[C@H]1Cc2cccc(C(=O)O)c2OB1O [Example 29, (R)-3-(2-(trans-4-(4,5-dihydro-1H-imidazol-1-yl)cyclohexyl)acetamido)-2-hydroxy-3,4-dihydro-2H-benzo[e][1,2]oxaborinine-8-carboxylic acid]
P. aerug. Ps296 VIM-2
  MIC: 8 to 32 mg/L
E. cl 144200 p99 AmpC
  MIC: < 4 mg/L
E. coli ESBL4 CTX-M-15
  MIC: < 4 mg/L
K.P. 156319 KPC-3
  MIC: < 4 mg/L
S. aureus MSSA-7 PC-1
  MIC: < 4 mg/L
K.P. A-1797 KPC-2 VIM-4
  MIC: > 32 mg/L

## N=C(N)N[C@H]1CC[C@H](CCC(=O)N[C@H]2Cc3cccc(C(=O)O)c3OB2O)CC1 [Example 22, (R)-3-(3-(trans-4-guanidinocyclohexyl)propanamido)-2-hydroxy-3,4-dihydro-2H-benzo[e][1,2]oxaborinine-8-carboxylic acid]
P. aerug. Ps296 VIM-2
  MIC: 8 to 32 mg/L
E. cl 144200 p99 AmpC
  MIC: < 4 mg/L
E. coli ESBL4 CTX-M-15
  MIC: < 4 mg/L
K.P. 156319 KPC-3
  MIC: < 4 mg/L
S. aureus MSSA-7 PC-1
  MIC: < 4 mg/L
K.P. A-1797 KPC-2 VIM-4
  MIC: < 4 mg/L

## O=C(CC1CCC(N2CCOCC2)CC1)N[C@H]1Cc2cccc(C(=O)O)c2OB1O (stereo partly drawn) [Example 40, (R)-2-hydroxy-3-(2-(4-morpholinocyclohexyl)acetamido)-3,4-dihydro-2H-benzo[e][1,2]oxaborinine-8-carboxylic acid]
P. aerug. Ps296 VIM-2
  MIC: > 32 mg/L
E. cl 144200 p99 AmpC
  MIC: < 4 mg/L
E. coli ESBL4 CTX-M-15
  MIC: < 4 mg/L
K.P. 156319 KPC-3
  MIC: < 4 mg/L
S. aureus MSSA-7 PC-1
  MIC: < 4 mg/L
K.P. A-1797 KPC-2 VIM-4
  MIC: > 32 mg/L

## NCCNC(=O)NCCN(C(=O)NCCN)C1CC(CC(=O)N[C@H]2Cc3cccc(C(=O)O)c3OB2O)C1 (stereo partly drawn) [Example 57, (R)-3-(2-(3-(3-(2-aminoethyl)-1-(2-(3-(2-aminoethyl)ureido)ethyl)ureido)cyclobutyl)acetamido)-2-hydroxy-3,4-dihydro-2H-benzo[e][1,2]oxaborinine-8-carboxylic acid]
P. aerug. Ps296 VIM-2
  MIC: < 4 mg/L
E. cl 144200 p99 AmpC
  MIC: < 4 mg/L
E. coli ESBL4 CTX-M-15
  MIC: < 4 mg/L
K.P. 156319 KPC-3
  MIC: < 4 mg/L
S. aureus MSSA-7 PC-1
  MIC: < 4 mg/L
K.P. A-1797 KPC-2 VIM-4
  MIC: 8 to 32 mg/L

## N=C(N)N[C@H]1CC[C@H](CC(=O)N[C@H]2Cc3cccc(C(=O)O)c3OB2O)CC1 [Example 9, (R)-3-(2-(trans-4-guanidinocyclohexyl)acetamido)-2-hydroxy-3,4-dihydro-2H-benzo[e][1,2]oxaborinine-8-carboxylic acid]
P. aerug. Ps296 VIM-2
  MIC: 8 to 32 mg/L
E. cl 144200 p99 AmpC
  MIC: < 4 mg/L
E. coli ESBL4 CTX-M-15
  MIC: < 4 mg/L
K.P. 156319 KPC-3
  MIC: < 4 mg/L
S. aureus MSSA-7 PC-1
  MIC: < 4 mg/L
K.P. A-1797 KPC-2 VIM-4
  MIC: 8 to 32 mg/L

## C[C@H](N)CNCCN[C@H]1CC[C@H](CC(=O)N[C@H]2Cc3cccc(C(=O)O)c3OB2O)CC1 [Example 62, (R)-3-(2-(trans-4-(2-((S)-2-aminopropylamino)ethylamino)cyclohexyl)acetamido)-2-hydroxy-3,4-dihydro-2H-benzo[e][1,2]oxaborinine-8-carboxylic acid]
P. aerug. Ps296 VIM-2
  MIC: 8 to 32 mg/L
E. cl 144200 p99 AmpC
  MIC: < 4 mg/L
E. coli ESBL4 CTX-M-15
  MIC: < 4 mg/L
K.P. 156319 KPC-3
  MIC: < 4 mg/L
S. aureus MSSA-7 PC-1
  MIC: < 4 mg/L
K.P. A-1797 KPC-2 VIM-4
  MIC: < 4 mg/L

## CN(C)CCN(C)[C@H]1CC[C@H](CC(=O)N[C@H]2Cc3cccc(C(=O)O)c3OB2O)CC1 [Example 23, (R)-3-(2-(trans-4-((2-(dimethylamino)ethyl)(methyl)amino)cyclohexyl)acetamido)-2-hydroxy-3,4-dihydro-2H-benzo[e][1,2]oxaborinine-8-carboxylic acid]
P. aerug. Ps296 VIM-2
  MIC: > 32 mg/L
E. cl 144200 p99 AmpC
  MIC: < 4 mg/L
E. coli ESBL4 CTX-M-15
  MIC: < 4 mg/L
K.P. 156319 KPC-3
  MIC: < 4 mg/L
S. aureus MSSA-7 PC-1
  MIC: < 4 mg/L
K.P. A-1797 KPC-2 VIM-4
  MIC: > 32 mg/L

## CNCCN[C@H]1CC[C@H](C(CO)C(=O)N[C@H]2Cc3cccc(C(=O)O)c3OB2O)CC1 (stereo partly drawn) [Example 64, (R)-2-hydroxy-3-(3-hydroxy-2-(trans-4-(2-(methylamino)ethylamino)cyclohexyl)propanamido)-3,4-dihydro-2H-benzo[e][1,2]oxaborinine-8-carboxylic acid]
P. aerug. Ps296 VIM-2
  MIC: < 4 mg/L
E. cl 144200 p99 AmpC
  MIC: < 4 mg/L
E. coli ESBL4 CTX-M-15
  MIC: < 4 mg/L
K.P. 156319 KPC-3
  MIC: < 4 mg/L
S. aureus MSSA-7 PC-1
  MIC: < 4 mg/L
K.P. A-1797 KPC-2 VIM-4
  MIC: < 4 mg/L

## CN(C)CC(=O)NC[C@H]1CC[C@H](CC(=O)N[C@H]2Cc3cccc(C(=O)O)c3OB2O)CC1 [Example 5, (R)-3-(2-(trans-4-((2-(dimethylamino)acetamido)methyl)cyclohexyl)acetamido)-2-hydroxy-3,4-dihydro-2H-benzo[e][1,2]oxaborinine-8-carboxylic acid]
P. aerug. Ps296 VIM-2
  MIC: < 4 mg/L
E. cl 144200 p99 AmpC
  MIC: < 4 mg/L
E. coli ESBL4 CTX-M-15
  MIC: < 4 mg/L
K.P. 156319 KPC-3
  MIC: 8 to 32 mg/L
S. aureus MSSA-7 PC-1
  MIC: < 4 mg/L
K.P. A-1797 KPC-2 VIM-4
  MIC: > 32 mg/L

## CS(=O)(=O)NCCN[C@H]1CC[C@H](CC(=O)N[C@H]2Cc3cccc(C(=O)O)c3OB2O)CC1 [Example 49, (R)-2-hydroxy-3-(2-(trans-4-(2-(methylsulfonamido)ethylamino)cyclohexyl)acetamido)-3,4-dihydro-2H-benzo[e][1,2]oxaborinine-8-carboxylic acid]
P. aerug. Ps296 VIM-2
  MIC: 8 to 32 mg/L
E. cl 144200 p99 AmpC
  MIC: < 4 mg/L
E. coli ESBL4 CTX-M-15
  MIC: < 4 mg/L
K.P. 156319 KPC-3
  MIC: < 4 mg/L
S. aureus MSSA-7 PC-1
  MIC: < 4 mg/L
K.P. A-1797 KPC-2 VIM-4
  MIC: 8 to 32 mg/L

## CC(NC(=O)C1C[C@H](N)[C@@H](N)C1)C(=O)N[C@H]1Cc2cccc(C(=O)O)c2OB1O (stereo partly drawn) [Example 38]
P. aerug. Ps296 VIM-2
  MIC: < 4 mg/L
E. cl 144200 p99 AmpC
  MIC: < 4 mg/L
E. coli ESBL4 CTX-M-15
  MIC: < 4 mg/L
K.P. 156319 KPC-3
  MIC: < 4 mg/L
S. aureus MSSA-7 PC-1
  MIC: < 4 mg/L
K.P. A-1797 KPC-2 VIM-4
  MIC: < 4 mg/L

## N[C@H](CO)CN[C@H]1CC[C@H](CC(=O)N[C@H]2Cc3cccc(C(=O)O)c3OB2O)CC1 [Example 67, (R)-3-(2-(trans-4-((S)-2-amino-3-hydroxypropylamino)cyclohexyl)acetamido)-2-hydroxy-3,4-dihydro-2H-benzol[e][1,2]oxaborinine-8-carboxylic acid]
P. aerug. Ps296 VIM-2
  MIC: < 4 mg/L
E. cl 144200 p99 AmpC
  MIC: < 4 mg/L
E. coli ESBL4 CTX-M-15
  MIC: < 4 mg/L
K.P. 156319 KPC-3
  MIC: < 4 mg/L
S. aureus MSSA-7 PC-1
  MIC: < 4 mg/L
K.P. A-1797 KPC-2 VIM-4
  MIC: < 4 mg/L
